Reference: patent US20250108142A1, “METHODS FOR TREATING LEAKAGE FROM A GASTROINTESTINAL SITE” (Ethicon, Inc., priority 2023, published 2025)

Assay: Release of ibuprofen from fibrin clot in an in vitro setting
Format: physicochemical
Experimental: Release of ibuprofen from fibrin clot in an in vitro setting: A similar procedure was applied for ibuprofen embedded in fibrin sealant and for PLGA-ibuprofen embedded in fibrin sealant. […] This step was repeated 15 times (days). The ibuprofen concentration was measured by its UV signature, that is, UV absorption at 221 nm.

- release profile: less than controlled manner
Compound: CC(C)Cc1ccc(C(C)C(=O)O)cc1 (stereo not shown) [Ibuprofen, ibuprofen]
